Patent US20250326749A1, “COMPOUNDS, COMPOSITIONS, AND METHODS OF USING THEREOF” (Sionna Therapeutics Inc., priority 2022, published 2025)

Target: T1, ΔF508-CFTR (Homo sapiens, UniProt P13569, DEL508-508)
T1 construct: expressed in transfected cells; host or cells: CFSMEo- (human CF submucosal gland epithelial cells, ΔF508/Q2X), transiently transfected by nucleofection
Assay: ΔF508-CFTR-HRP trafficking assay (cell surface expression of ΔF508-CFTR)
Type: cell-based
Details: CFSMEo- cells transiently transfected with ΔF508-CFTR-HRP; test agent 3 μM, 48 h; HRP chemiluminescence
Method in brief: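 Surface-expressed ΔF508-CFTR measured via extracellular HRP tag: cell-impermeable chemiluminescent substrate, 5 min, signal normalized to 0.3% DMSO vehicle.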

T1 sequence (P13569 with tags, fused parts or gaps DEL508-508): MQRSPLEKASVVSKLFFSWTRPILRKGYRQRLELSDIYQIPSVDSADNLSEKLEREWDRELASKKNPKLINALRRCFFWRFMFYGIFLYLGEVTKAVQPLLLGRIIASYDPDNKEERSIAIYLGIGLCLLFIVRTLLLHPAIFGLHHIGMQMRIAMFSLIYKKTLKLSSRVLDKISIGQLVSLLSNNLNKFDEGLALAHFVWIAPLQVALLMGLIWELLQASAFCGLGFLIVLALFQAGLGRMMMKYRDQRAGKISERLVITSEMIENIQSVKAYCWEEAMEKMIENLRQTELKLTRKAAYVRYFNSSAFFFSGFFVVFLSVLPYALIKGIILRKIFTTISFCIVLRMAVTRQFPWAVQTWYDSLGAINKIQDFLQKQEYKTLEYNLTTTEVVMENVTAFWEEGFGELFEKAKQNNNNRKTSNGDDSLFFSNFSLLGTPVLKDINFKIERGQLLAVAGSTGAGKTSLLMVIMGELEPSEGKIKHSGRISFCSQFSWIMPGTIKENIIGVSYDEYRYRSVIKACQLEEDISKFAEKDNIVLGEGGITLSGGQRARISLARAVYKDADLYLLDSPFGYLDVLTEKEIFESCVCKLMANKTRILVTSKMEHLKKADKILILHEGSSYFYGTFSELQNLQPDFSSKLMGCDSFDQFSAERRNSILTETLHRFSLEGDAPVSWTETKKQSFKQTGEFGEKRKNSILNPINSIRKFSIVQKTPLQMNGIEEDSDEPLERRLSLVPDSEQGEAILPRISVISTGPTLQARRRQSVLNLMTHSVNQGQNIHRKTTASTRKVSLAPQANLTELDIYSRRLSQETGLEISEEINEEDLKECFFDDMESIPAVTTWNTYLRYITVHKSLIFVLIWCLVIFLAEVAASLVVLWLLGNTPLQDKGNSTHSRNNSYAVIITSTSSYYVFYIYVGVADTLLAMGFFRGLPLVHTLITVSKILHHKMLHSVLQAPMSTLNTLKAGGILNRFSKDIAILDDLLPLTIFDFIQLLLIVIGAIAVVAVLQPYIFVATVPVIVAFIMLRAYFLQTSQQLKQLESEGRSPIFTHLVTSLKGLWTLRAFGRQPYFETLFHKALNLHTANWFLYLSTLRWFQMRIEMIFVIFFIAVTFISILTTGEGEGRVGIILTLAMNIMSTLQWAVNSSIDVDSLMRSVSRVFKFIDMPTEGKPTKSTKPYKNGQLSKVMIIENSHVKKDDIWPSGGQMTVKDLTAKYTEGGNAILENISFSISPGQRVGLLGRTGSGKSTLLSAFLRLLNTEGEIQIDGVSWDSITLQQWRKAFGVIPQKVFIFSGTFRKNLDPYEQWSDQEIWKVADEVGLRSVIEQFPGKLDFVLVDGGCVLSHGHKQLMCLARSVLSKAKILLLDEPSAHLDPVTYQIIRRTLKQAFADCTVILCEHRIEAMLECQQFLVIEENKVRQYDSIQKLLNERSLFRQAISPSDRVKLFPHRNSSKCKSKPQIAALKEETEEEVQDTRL

Row | Structure (SMILES) | RLUs: ΔF508-CFTR-HRP trafficking data normalized to the vehicle treated control (0.3% DMSO)
1 | C[C@@H](Oc1cc(-n2nc(C(F)(F)F)c3c2N(Cc2ccc(C(=O)O)cc2)CCC3)cnn1)c1ccc2c(c1)OC(F)(F)O2 (single isomer, unassigned) [Example 3] | C (RLU 0.0 μM-3.5 μM)
2 | C[C@@H](Oc1cc(-n2nc(C(F)(F)F)c3c2C(OC24CC(C(=O)O)(C2)C4)CCC3)ccn1)c1ccc2c(c1)OC(F)(F)O2 (stereo partly shown) [Example 40] | A (RLU 5.0 μM-10 μM)
3 | C[C@H](Oc1cccc(-n2nc(C(F)(F)F)c3c2N(C(=O)c2ccc(C(=O)O)cc2)CCC3)c1)c1ccc2c(c1)OC(F)(F)O2 (single isomer, unassigned) [Example 15] | B (RLU 3.5 μM-5.0 μM)
4 | C[C@H](Oc1cccc(-n2nc(C(F)(F)F)c3c2C(Oc2ccc(C(=O)O)cc2)CCC3)c1)c1ccc2c(c1)OC(F)(F)O2 (stereo partly shown) [Example 29] | B (RLU 3.5 μM-5.0 μM)
5 | C[C@H](Oc1cccc(-n2nc(C(F)(F)F)c3c2[C@@H](Oc2ccc(C(=O)O)cc2)CCC3)c1)c1cc2c(cc1F)OC(F)(F)O2 (single isomer, unassigned) [Example 36g] | B (RLU 3.5 μM-5.0 μM)
6 | C[C@H](Oc1cccc(-n2nc(C(F)(F)F)c3c2[C@@H](C(=O)N2CCC(C(=O)O)CC2)CCC3)c1)c1ccc2c(c1)OC(F)(F)O2 (single isomer, unassigned) [120 (P1)] | B (RLU 3.5 μM-5.0 μM)
7 | C[C@H](Oc1cc(-n2nc(C(F)(F)F)c3c2[C@@H](CN2CCC(C(=O)O)CC2)CCC3)ccn1)c1ccc2c(c1)OC(F)(F)O2 (single isomer, unassigned) [125 (P1)] | A (RLU 5.0 μM-10 μM)
8 | CC(Oc1cc(-n2nc(C(F)(F)F)c3c2C(OC24CC(C(=O)O)(C2)C4)CCC3)ccn1)c1cc2c(cn1)OC(F)(F)O2 (stereo in doubt) [Example 46, 3-[[1-[2-[(1R)-1-(2,2-difluoro-[1,3]dioxolo[4,5-c]pyridine-6-yl)ethoxy]-4-pyridyl]-3-(trifluoromethyl)-4,5,6,7-tetrahydroindazol-7-yl]oxy]bicyclo[1.1.1]pentane-1-carboxylic acid] | B (RLU 3.5 μM-5.0 μM)
9 | C[C@H](Oc1cccc(-n2nc(C(F)(F)F)c3c2N(CC24CC(C(=O)O)(C2)C4)CCC3)c1)c1ccc2c(c1)OC(F)(F)O2 [Example 11, 3-[[1-[3-[(1S)-1-(2,2-difluoro-1,3-benzodioxol-5-yl)ethoxy]phenyl]-3-(trifluoromethyl)-5,6-dihydro-4H-pyrazolo[3,4-b]pyridine-7-yl]methyl]bicyclo[1.1.1]pentane-1-carboxylic acid] | A (RLU 5.0 μM-10 μM)
10 | C[C@H](Oc1cncc(-n2nc(C(F)(F)F)c3c2[C@H](C(=O)N2CCC(C(=O)O)CC2)CCC3)c1)c1ccc2c(c1)OC(F)(F)O2 (single isomer, unassigned) [122 (P2)] | B (RLU 3.5 μM-5.0 μM)
11 | C[C@H](Oc1cc(-n2nc(C(F)(F)F)c3c2[C@@H](Oc2ccc(C(=O)O)cc2)CCC3)cnc1F)c1ccc2c(c1)OC(F)(F)O2 (single isomer, unassigned) [Example 68] | C (RLU 0.0 μM-3.5 μM)
12 | C[C@H](Nc1ccc(F)c(-n2nc(C(F)(F)F)c3c2[C@H](OC24CC(C(=O)O)(C2)C4)CCC3)c1)c1cc2c(cc1F)OC(F)(F)O2 (single isomer, unassigned) [98 (P2)] | C (RLU 0.0 μM-3.5 μM)
13 | C[C@H](Nc1cccc(-n2nc(C(F)(F)F)c3c2[C@@H](Oc2ccc(C(=O)O)cc2)CCC3)n1)c1ccc2c(c1)OC(F)(F)O2 (single isomer, unassigned) [Example 91] | A (RLU 5.0 μM-10 μM)
14 | C[C@H](Nc1ccc(F)c(-n2nc(C(F)(F)F)c3c2[C@@H](OC24CC(C(=O)O)(C2)C4)CCC3)c1)c1cc2c(cc1F)OC(F)(F)O2 (single isomer, unassigned) [98 (P1)] | C (RLU 0.0 μM-3.5 μM)
15 | C[C@H](Oc1cc(-n2nc(C(F)(F)F)c3c2[C@@H](OC24CC(c5nc(=O)o[nH]5)(C2)C4)CCC3)ccc1F)c1cc2c(cc1F)OC(F)(F)O2 (single isomer, unassigned) [86 (P1)] | C (RLU 0.0 μM-3.5 μM)
16 | C[C@H](Oc1cccc(-n2nc(C(F)(F)F)c3c2[C@H](O[C@H]2C[C@H](C(=O)O)C2)CCC3)n1)c1cc2c(cc1F)OC(F)(F)O2 (single isomer, unassigned) [83 (P2)] | C (RLU 0.0 μM-3.5 μM)
17 | C[C@H](Oc1ccnc(-n2nc(C(F)(F)F)c3c2[C@@H](Oc2ccc(C(=O)O)cc2)CCC3)c1)c1ccc2c(c1)OC(F)(F)O2 (single isomer, unassigned) [Example 36b] | A (RLU 5.0 μM-10 μM)
18 | C[C@@H](Oc1cccc(-n2nc(C(F)(F)F)c3c2C(O[C@H]2CC[C@H](C(=O)O)CC2)CCC3)c1)c1ccc2c(c1)OC(F)(F)O2 (stereo partly shown) [Example 38] | A (RLU 5.0 μM-10 μM)
19 | C[C@H](Oc1cccc(-n2nc(C(F)(F)F)c3c2[C@@H](OC24CC(C(=O)O)(C2)C4)CCC3)n1)c1ccc2c(c1)OC(F)(F)O2 (single isomer, unassigned) [77 (P1)] | B (RLU 3.5 μM-5.0 μM)
20 | Cc1cc(OC2CCCc3c(C(F)(F)F)nn(-c4cccc(O[C@H](C)c5cc6c(cc5F)OC(F)(F)O6)c4)c32)ccc1C(=O)O (single isomer, unassigned) [Example 34] | B (RLU 3.5 μM-5.0 μM)
21 | C[C@H](Nc1cc(-c2nn(CC(F)(F)F)c3c2[C@@H](Oc2ccc(C(=O)O)cc2)CCC3)ccn1)c1ccc2c(c1)OC(F)(F)O2 (single isomer, unassigned) [Example 129] | B (RLU 3.5 μM-5.0 μM)
22 | C[C@H](Oc1cncc(-n2nc(C(F)(F)F)c3c2N(C(=O)[C@H]2CC[C@H](C(=O)O)CC2)CCC3)c1)c1ccc2c(c1)OC(F)(F)O2 (single isomer, unassigned) [Example 17] | C (RLU 0.0 μM-3.5 μM)
23 | C[C@H](Oc1cc(-n2nc(C(F)(F)F)c3c2[C@@H](Oc2ccc(C(=O)O)cc2)CCC3)ccc1F)c1cc2c(cc1F)OC(F)(F)O2 (single isomer, unassigned) [Example 36j] | C (RLU 0.0 μM-3.5 μM)
24 | C[C@@H](Oc1cccc(-n2nc(C(F)(F)F)c3c2C(Oc2ccc(C(=O)O)cc2)CCC3)c1)c1ccc2c(c1)OC(F)(F)O2 (single isomer, unassigned) [Example 28] | A (RLU 5.0 μM-10 μM)
25 | C[C@H](Oc1cc(-n2nc(C(F)(F)F)c3c2C(O[C@H]2CC[C@H](C(=O)O)CC2)CCC3)ccn1)c1ccc2c(c1)OC(F)(F)O2 (single isomer, unassigned) [Example 44] | A (RLU 5.0 μM-10 μM)
